Assay results taken from paper PMC7059793, “Novel Chemical Scaffolds to Inhibit the Neutral Amino Acid Transporter B^0AT1 (SLC6A19), a Potential Target to Treat Metabolic Diseases” (Frontiers in Pharmacology, 2020).

Assays:
Assay type in all cases: cell-based
B^0AT1 [1] = target: T1, B^0AT1 (Homo sapiens, UniProt Q695T7); assay: Membrane potential detecting FLIPR assay in CHO-BC cells; conditions: 30 min pre-incubation, leucine or isoleucine 1.5 mM
T1 construct: expressed in transfected cells
T1 sequence (Q695T7 1-634): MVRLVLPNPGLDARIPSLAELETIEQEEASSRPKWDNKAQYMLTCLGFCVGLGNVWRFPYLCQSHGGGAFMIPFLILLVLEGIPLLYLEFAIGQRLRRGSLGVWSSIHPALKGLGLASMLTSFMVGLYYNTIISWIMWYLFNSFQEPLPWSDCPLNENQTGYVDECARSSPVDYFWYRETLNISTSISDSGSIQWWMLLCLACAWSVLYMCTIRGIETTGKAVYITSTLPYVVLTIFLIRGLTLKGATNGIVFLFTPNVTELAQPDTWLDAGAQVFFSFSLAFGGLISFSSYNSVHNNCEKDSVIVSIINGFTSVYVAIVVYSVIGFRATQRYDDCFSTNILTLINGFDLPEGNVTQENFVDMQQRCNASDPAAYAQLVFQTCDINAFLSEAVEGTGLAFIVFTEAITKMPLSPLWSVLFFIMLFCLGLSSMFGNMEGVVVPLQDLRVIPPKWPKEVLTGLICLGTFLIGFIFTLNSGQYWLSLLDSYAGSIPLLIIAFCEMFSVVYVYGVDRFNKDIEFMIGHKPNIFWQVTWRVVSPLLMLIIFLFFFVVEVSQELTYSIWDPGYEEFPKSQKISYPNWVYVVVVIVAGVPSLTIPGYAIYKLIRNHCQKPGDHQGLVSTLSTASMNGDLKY
T1 sequence (Q9HBJ8 15-222 partner): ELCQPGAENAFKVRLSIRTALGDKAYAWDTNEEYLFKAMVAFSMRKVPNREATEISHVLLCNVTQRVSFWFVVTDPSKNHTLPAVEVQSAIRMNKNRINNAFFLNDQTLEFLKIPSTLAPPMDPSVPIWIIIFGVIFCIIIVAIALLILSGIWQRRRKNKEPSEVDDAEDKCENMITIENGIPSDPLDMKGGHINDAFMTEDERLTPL
Description: CHO-B^0AT1-collectrin Cells (CHO-BC) were generated, cultured, and used as described recently ([Cheng et al., 2017]). Expression levels of B^0AT1 in CHO-BC cells decline over time. As a result, passages <10 were used for experiments. The cells were maintained in Ham’s F-12 glutamax media with 10% (v/v) fetal bovine serum (FBS, Heat inactivated, 10082147 Gibco), 1mM glutamine, 300μg/ml hygromycin B and 275 μg/ml geneticin.
Membrane depolarisation induced by amino acid transport was monitored using a FLIPR® kit (Molecular Devices, R8042 BLUE DYE). Before the assay, CHO-BC cells were seeded out at a density of 60,000 cells/well and maintained in a flat transparent bottom 96-well plate (Corning) overnight. After washing three times with Hank’s balanced salt solution (136.6 mM NaCl, 5.4 mM KCl, 0.44 mM KH2PO4, 2.7mM Na2HPO4, 1.26mM CaCl2, 0.5mM MgCl2, 0.4 mM MgSO4, 10mM HEPES, pH 7.5, supplemented with 5 mM glucose, abbreviated HBSS + G), cells in each well were incubated for 30 min at room temperature in 50 µl of HBSS pH 7.5 containing 5 mM glucose and compounds as indicated, together with 50 µl of dye-loading buffer provided with the kit. Subsequently, the fluorescence signal was detected every 10 s before and after the addition of leucine or isoleucine at a final concentration of 1.5 mM. Fluorescence was detected at room temperature using a PerkinElmer multimode Plate Reader, with an excitation wavelength of 530 nm and emission wavelength of 565 nm.
(§1) Data are shown as mean ± S.D., transport activities indicated as Na^+-dependent net uptake, were calculated by subtracting the uptake activity in the absence of Na^+ from the total uptake rate. The fluorescent signals measured in the FLIPR assay were normalized to baseline readings before the addition of substrates. Data are presented as percentage of baseline at each time point. IC50 was calculated using the equation: y=ymax(1−[x]/[x]+IC50) .

LAT1 = target: T2, LAT1 (Homo sapiens, UniProt Q01650); assay: Na+-independent [14C]leucine uptake in 143B cells; conditions: inhibitor at 10 μM and 50 μM
T2 construct: endogenous in cells; host or cells: 143B TK- cells (human osteosarcoma)
T2 sequence (Q01650 whole entry): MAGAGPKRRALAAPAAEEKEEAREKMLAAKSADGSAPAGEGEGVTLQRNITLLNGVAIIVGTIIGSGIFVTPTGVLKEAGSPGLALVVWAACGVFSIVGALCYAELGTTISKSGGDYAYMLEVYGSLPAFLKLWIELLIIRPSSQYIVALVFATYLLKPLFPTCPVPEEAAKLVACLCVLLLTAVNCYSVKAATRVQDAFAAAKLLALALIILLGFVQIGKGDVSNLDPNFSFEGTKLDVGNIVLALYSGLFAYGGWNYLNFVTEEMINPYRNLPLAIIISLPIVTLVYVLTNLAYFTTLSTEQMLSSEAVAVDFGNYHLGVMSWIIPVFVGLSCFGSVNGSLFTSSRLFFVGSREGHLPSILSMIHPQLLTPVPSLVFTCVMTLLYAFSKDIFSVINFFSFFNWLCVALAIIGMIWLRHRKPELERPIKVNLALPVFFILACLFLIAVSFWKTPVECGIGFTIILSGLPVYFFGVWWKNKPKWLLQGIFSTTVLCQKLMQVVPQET
T2 sequence (P08195 102-630 partner): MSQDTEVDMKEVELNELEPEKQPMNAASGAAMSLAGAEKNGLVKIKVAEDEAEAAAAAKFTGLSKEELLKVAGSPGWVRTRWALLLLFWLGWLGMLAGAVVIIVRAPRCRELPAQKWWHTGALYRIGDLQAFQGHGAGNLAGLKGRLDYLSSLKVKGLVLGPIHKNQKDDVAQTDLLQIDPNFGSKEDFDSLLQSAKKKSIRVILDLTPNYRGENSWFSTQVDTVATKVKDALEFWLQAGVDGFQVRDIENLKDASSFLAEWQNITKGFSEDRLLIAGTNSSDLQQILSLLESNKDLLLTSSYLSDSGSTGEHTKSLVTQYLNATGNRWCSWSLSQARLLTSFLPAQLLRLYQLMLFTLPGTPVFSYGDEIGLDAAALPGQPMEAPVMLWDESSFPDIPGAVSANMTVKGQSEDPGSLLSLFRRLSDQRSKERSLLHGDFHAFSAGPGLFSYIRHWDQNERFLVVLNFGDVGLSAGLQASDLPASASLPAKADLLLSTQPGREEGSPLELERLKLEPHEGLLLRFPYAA
Description: (§2) CHO-BC cells with passage numbers from 3 to 10 were used in radio-labelled uptake assays. Before the assay, the cells were seeded out in 35 mm dishes (Corning) and maintained for 48–72 h until reaching 80–90% confluence. To initiate transport, the culture medium was removed and the cells washed three times with HBSS + G. Subsequently, cells were incubated with HBSS + G, radiolabelled substrates (150 μM L-[U-^14C]leucine or 150 μM L-[U-^14C]isoleucine) and inhibitors as indicated in the figures or table in a 37°C water bath for 6 min. To terminate transport, cells were washed three times with ice-cold HBSS pH 7.5. For measuring sodium-independent uptake, NaCl in Hank’s buffer was replaced by NMDG-Cl. Cells were then harvested by homogenizing with 500 µl of 0.1 M HCl. An aliquot of 400 µl was used for scintillation counting and the remainder for protein quantification. To investigate inhibition of ASCT2, uptake of 100 μM [^14C]glutamine was measured in 143B cells in the absence and presence of inhibitor (at 10 μM and 50 μM). To measure inhibition of LAT1, uptake of [^14C]leucine was measured in HBSS + G in which NaCl was replaced by NMDG-Cl in 143B cells in the absence and presence of inhibitor (at 10 μM and 50 μM).
To investigate the specificity of the compounds further, we tested them in human 143B osteosarcoma cells, which we have extensively characterised previously and used for pharmacological analysis ([Broer et al., 2018]). Na^+-dependent glutamine transport in 143B cells is largely mediated by ASCT2 (SLC1A5). Na^+-independent transport of leucine, by contrast, is mediated entirely by LAT1.

B^0AT1 [2] = target: T1, B^0AT1; assay: Radioactive flux assay (radiolabelled leucine/isoleucine uptake) in CHO-BC cells; conditions: 150 μM [14C]leucine or [14C]isoleucine, 6 min, 37°C
Description: as §2, §1

SMILES	IC50 (B^0AT1 [1]) [µM]	Inhibition of Na+-independent leucine uptake (LAT1) (LAT1)	IC50 (B^0AT1 [2]) [µM]
Cc1cc(C(=O)Nc2ccc(Cl)cc2C(F)(F)F)no1 [CB3]	1.9 ± 0.6	failed to inhibit	4.9 ± 0.4
Cc1cc(OCC(=O)NC(C)C)cc(C)c1Cl [Compound E4]	13.7 ± 0.9	failed to inhibit	7.7 ± 1.9
COc1ccccc1Nc1nc2ccccc2s1 [Compound E18]	4.2 ± 0.9	failed to inhibit	3.4 ± 0.3
